The text below walks through data of paper PMC4503722, “Novel Phenotypic Outcomes Identified for a Public Collection of Approved Drugs from a Publicly Accessible Panel of Assays” (PLoS ONE, 2015).

A value given as a limit tells only on which side of the number the result lay.

Assay [1] has as its system endothelial tube formation in co-cultures of ECFCs and ADSCs treated with VEGF. Description: cells. The format is cell-based, human.
Another assay concerns DLD-1. Description: cells. It is filed as cell-based.
The subject of another assay is SW480. Description: cells. The format is cell-based.
A further assay deals with HCT116. Kind of assay: cells. The format is cell-based.
Assay [2] concerns HCT116 cells treated with a GSK3β inhibitor. Kind of assay: cells. It is filed as cell-based.
A further assay concerns Colo320. Description: cells. It is filed as cell-based.
In another assay the test system is HT-29. Kind of assay: cells. The format is cell-based.
The next assay has as its system RKO. Description: cells. The format is cell-based.
A further assay concerns SNU-C1. Description: cells. It is filed as cell-based.
The subject of assay [3] is ECFC/ADSC co-culture cell nuclei number.
Where [4] appears, read: assay number 26, GSK3b inhibitor pretreated.

Regarding `CC(=O)NC(=O)c1ccccc1O` [NCGC00160362-02], the IC50 (in general, the concentration that inhibits the measured activity by half) in [1] (read-out: VEGF_ADSC\ECFC Angio CD31 TubeArea summarized IC50) was greater than 10 µM; in the assay with DLD-1 (assay number 23, basal, read-out: Basal_Viability ATP DLD-1 summarized IC50), greater than 20 µM; with SW480 (assay number 24, basal, read-out: Basal_Viability ATP SW480 summarized IC50) it was greater than 20 µM; in the assay with HCT116 (assay number 25, basal, read-out: Basal_Viability ATP HCT116 summarized IC50), greater than 20 µM; in [2] (assay number 26, GSK3b inhibitor pretreated, read-out: GSK3b inh pretreated_Viability ATP HCT116 summarized IC50) it was greater than 20 µM; in the assay on Colo320 (assay number 27, basal, read-out: Basal_Viability ATP Colo 320 summarized IC50), greater than 20 µM. Further, the 50% inhibitory concentration (IC50) was greater than 20 µM in the assay on HT-29 (assay number 28, basal, read-out: Basal_Viability ATP HT-29 summarized IC50); greater than 20 µM in the assay with RKO (assay number 29, basal, read-out: Basal_Viability ATP RKO summarized IC50); greater than 20 µM with SNU-C1 (assay number 30, basal, read-out: Basal_Viability ATP SNU-C1 summarized IC50); greater than 10 µM in assay [3] (read-out: VEGF_ADSC\ECFC Angio Hoechst NucArea summarized IC50).

Turning to `CCCCN1CCCC1C(=O)Nc1c(C)cc(C)cc1C` (stereo not shown) [NCGC00160363-03], the “VEGF_ADSC\ECFC Angio CD31 TubeArea IC50/EC50” value in assay [1] was greater than 10 µM. The “Basal_Viability ATP DLD-1 IC50/EC50” value in the assay with DLD-1 (assay number 23, basal) was greater than 20 µM. In the assay on SW480 (assay number 24, basal), the “Basal_Viability ATP SW480 IC50/EC50” value is greater than 20 µM. In addition, the “Basal_Viability ATP HCT116 IC50/EC50” value in the assay on HCT116 (assay number 25, basal) is recorded as greater than 20 µM. Further, the “GSK3b inh pretreated_Viability ATP HCT116 IC50/EC50” value in assay [2] (setting [4]) is given as greater than 20 µM. Moreover, the “Basal_Viability ATP Colo 320 IC50/EC50” value in the assay on Colo320 (assay number 27, basal) was greater than 20 µM. Moreover, in the assay with HT-29 (assay number 28, basal), the “Basal_Viability ATP HT-29 IC50/EC50” value is on record as greater than 20 µM. For the same molecule, in the assay on RKO (assay number 29, basal), the “Basal_Viability ATP RKO IC50/EC50” value is greater than 20 µM. In the assay with SNU-C1 (assay number 30, basal), the “Basal_Viability ATP SNU-C1 IC50/EC50” value is given as greater than 20 µM. The “VEGF_ADSC\ECFC Angio Hoechst NucArea IC50/EC50” value in assay [3] is listed as greater than 10 µM.

As for `O=C(Nc1ccc(Br)cc1)c1cc(Br)c(Br)s1` [NCGC00160448-02], the “VEGF_ADSC\ECFC Angio CD31 TubeArea IC50/EC50” value in [1] was greater than 10 µM. In addition, in the assay on DLD-1 (assay number 23, basal), the “Basal_Viability ATP DLD-1 IC50/EC50” value is on record as 0.3353 µM. For the same molecule, the “Basal_Viability ATP SW480 IC50/EC50” value in the assay with SW480 (assay number 24, basal) is on record as 0.1229 µM. Besides, the “Basal_Viability ATP HCT116 IC50/EC50” value in the assay on HCT116 (assay number 25, basal) was 0.5412 µM. Further, the “GSK3b inh pretreated_Viability ATP HCT116 IC50/EC50” value in assay [2] (setting [4]) came out at 0.3423 µM. Besides, the “Basal_Viability ATP Colo 320 IC50/EC50” value in the assay with Colo320 (assay number 27, basal) came out at 0.018 µM. In addition, the “Basal_Viability ATP HT-29 IC50/EC50” value with HT-29 (assay number 28, basal) was found to be 0.5199 µM. The “Basal_Viability ATP RKO IC50/EC50” value in the assay with RKO (assay number 29, basal) turned out to be 0.4312 µM. Also, the “Basal_Viability ATP SNU-C1 IC50/EC50” value in the assay on SNU-C1 (assay number 30, basal) is listed as 1.0991 µM. Further, the “VEGF_ADSC\ECFC Angio Hoechst NucArea IC50/EC50” value in assay [3] is greater than 10 µM.

In the case of `CCC1Nc2cc(Cl)c(S(N)(=O)=O)cc2S(=O)(=O)N1` (stereo not shown) [NCGC00160540-03], in assay [1], the “VEGF_ADSC\ECFC Angio CD31 TubeArea IC50/EC50” value is reported as greater than 10 µM. Further, in the assay with DLD-1 (assay number 23, basal), the “Basal_Viability ATP DLD-1 IC50/EC50” value is greater than 20 µM. Also, the “Basal_Viability ATP SW480 IC50/EC50” value in the assay with SW480 (assay number 24, basal) was greater than 6.6667 µM. For the same molecule, the “Basal_Viability ATP HCT116 IC50/EC50” value in the assay on HCT116 (assay number 25, basal) is greater than 20 µM. In [2] (setting [4]), the “GSK3b inh pretreated_Viability ATP HCT116 IC50/EC50” value was greater than 20 µM. The “Basal_Viability ATP Colo 320 IC50/EC50” value in the assay with Colo320 (assay number 27, basal) was greater than 20 µM. In addition, the “Basal_Viability ATP HT-29 IC50/EC50” value in the assay with HT-29 (assay number 28, basal) is recorded as greater than 20 µM. The “Basal_Viability ATP RKO IC50/EC50” value in the assay with RKO (assay number 29, basal) is reported as greater than 20 µM. In addition, the “Basal_Viability ATP SNU-C1 IC50/EC50” value in the assay with SNU-C1 (assay number 30, basal) was greater than 20 µM. Moreover, in [3], the “VEGF_ADSC\ECFC Angio Hoechst NucArea IC50/EC50” value is on record as greater than 10 µM.

`O=C1c2ccccc2C(=O)C1C(=O)C(c1ccccc1)c1ccccc1` [NCGC00160553-03]: the “IC50/EC50, VEGF_ADSC\ECFC Angio CD31 TubeArea (assay number 2)” value in assay [1] is reported as greater than 10 µM. The “IC50/EC50, Basal_Viability ATP DLD-1 (assay number 23)” value in the assay with DLD-1 is 1.326 µM. Also, the “IC50/EC50, Basal_Viability ATP SW480 (assay number 24)” value with SW480 was found to be 0.5361 µM. In the assay with HCT116, the “IC50/EC50, Basal_Viability ATP HCT116 (assay number 25)” value came out at 0.5307 µM. Besides, the “IC50/EC50, GSK3b inh pretreated_Viability ATP HCT116 (assay number 26)” value in assay [2] stood at 0.5674 µM. In addition, the “IC50/EC50, Basal_Viability ATP Colo 320 (assay number 27)” value in the assay with Colo320 came to 0.6211 µM. For the same molecule, the “IC50/EC50, Basal_Viability ATP HT-29 (assay number 28)” value with HT-29 is 4.4845 µM. Further, the “IC50/EC50, Basal_Viability ATP RKO (assay number 29)” value with RKO is listed as 1.5932 µM. For the same molecule, in the assay with SNU-C1, the “IC50/EC50, Basal_Viability ATP SNU-C1 (assay number 30)” value is reported as 4.0068 µM. For the same molecule, in assay [3], the “IC50/EC50, VEGF_ADSC\ECFC Angio Hoechst NucArea (assay number 3)” value is on record as greater than 10 µM.

As to `CCCCCCOC(=O)c1cccnc1` [NCGC00160591-02], the “VEGF_ADSC\ECFC Angio CD31 TubeArea IC50/EC50” value in [1] is given as greater than 10 µM. For the same molecule, in the assay on DLD-1 (assay number 23, concentration response), the “Basal_Viability ATP DLD-1 IC50/EC50” value is given as greater than 20 µM. In the assay with SW480 (assay number 24, concentration response), the “Basal_Viability ATP SW480 IC50/EC50” value is given as greater than 20 µM. Also, in the assay with HCT116 (assay number 25, basal, concentration response), the “Basal_Viability ATP HCT116 IC50/EC50” value is on record as greater than 20 µM. Also, in assay [2] (assay number 26, GSK3b inhibitor pretreated, concentration response), the “GSK3b inh pretreated_Viability ATP HCT116 IC50/EC50” value is given as greater than 20 µM. In the assay on Colo320 (assay number 27, concentration response), the “Basal_Viability ATP Colo 320 IC50/EC50” value is given as greater than 20 µM. Besides, in the assay with HT-29 (assay number 28, concentration response), the “Basal_Viability ATP HT-29 IC50/EC50” value was greater than 20 µM. For the same molecule, in the assay on RKO (assay number 29, concentration response), the “Basal_Viability ATP RKO IC50/EC50” value is recorded as greater than 20 µM. In addition, the “Basal_Viability ATP SNU-C1 IC50/EC50” value in the assay with SNU-C1 (assay number 30, concentration response) is listed as greater than 20 µM. In addition, the “VEGF_ADSC\ECFC Angio Hoechst NucArea IC50/EC50” value in assay [3] is listed as greater than 10 µM.

Consider `CCC(C(=O)OCCOCCN(CC)CC)c1ccccc1.O=C(O)CC(O)(CC(=O)O)C(=O)O` (stereo not shown) [NCGC00160645-02], for which the “VEGF_ADSC\ECFC Angio CD31 TubeArea IC50/EC50” value in assay [1] is reported as greater than 10 µM. Besides, the “Basal_Viability ATP DLD-1 IC50/EC50” value in the assay with DLD-1 (assay number 23, basal) is given as greater than 20 µM. The “Basal_Viability ATP SW480 IC50/EC50” value in the assay with SW480 (assay number 24, basal) is recorded as greater than 20 µM. Moreover, in the assay on HCT116 (assay number 25, basal), the “Basal_Viability ATP HCT116 IC50/EC50” value was greater than 20 µM. In addition, the “GSK3b inh pretreated_Viability ATP HCT116 IC50/EC50” value in assay [2] (setting [4]) is on record as greater than 20 µM. Besides, the “Basal_Viability ATP Colo 320 IC50/EC50” value in the assay on Colo320 (assay number 27, basal) is on record as greater than 20 µM. The “Basal_Viability ATP HT-29 IC50/EC50” value in the assay with HT-29 (assay number 28, basal) is on record as greater than 20 µM. Moreover, in the assay with RKO (assay number 29, basal), the “Basal_Viability ATP RKO IC50/EC50” value is recorded as greater than 20 µM. Besides, the “Basal_Viability ATP SNU-C1 IC50/EC50” value in the assay with SNU-C1 (assay number 30, basal) is on record as greater than 20 µM. The “VEGF_ADSC\ECFC Angio Hoechst NucArea IC50/EC50” value in assay [3] is greater than 10 µM.
